# “Also recorded” adds a separate entry of the source.
# Key:
# T cells = test: Viable cell count and percentage of viable cells post-electroporation with supplements; type: cell-based; conditions: day 7 post-electroporation; NAC 10 mM for duration, anti-IFNAR2 antibody once at 10 μg/ml
# Description: This example examined the effects of treatment with NAC, Akt VIII inhibitor, or anti-IFNAR2, on post-electroporation T cell survival as well as transfection efficiency. In these experiments, 2×10^6 cells in 100 μl were electroporated non-sequentially at 36 hr post-stimulation. After electroporation, the cells were recovered for 15 min, and then split equally among 5 different supplement conditions, as listed in Table 5. NAC was added to the medium at 10 mM for duration, Akt VIII inhibitor at 8 μM for duration, and anti-IFNAR2 antibody was added to the media once at 10 μg/ml. “Nuc” in Table 2 and FIGS. 22A-22D denotes the condition where exogenous DNA was added to be inserted into cell genome at 20 μg (“+20 μg), 35 μg (“+35 μg), or 50 μg (“+50 μg”).
# FIG. 23A-FIG. 23C show graphs of viable cell count in each condition on day 2, 5, and 7 post-electroporation, respectively. FIG. 23D-FIG. 23F show graphs of percentage of viable cells in each condition on day 2, 5, and 7 post-electroporation, respectively.
# [1] = tested on: T cells from donors 055330, 119866, 120534; test: FACs analysis of electroporation efficiency (mTCR), single or sequential electroporation; type: cell-based, human
# primary T cells = test: Transfection efficiency: GFP or mTCR transgene expression by FACs on day 7 / day 14 post electroporation; type: cell-based, human; conditions: for stable transgene expression (percent GFP or mTCR): 14 days post-transfection, electroporated on day 0 or day 1 post stimulation (FIG. 18); for transgene expression (day 7 percent GFP or mTCR expression): T cells electroporated on day 0 or day 1 post stimulation (FIG. 17); for transgene expression (percent GFP+ or mTCR+ cells): day 14 post electroporation of plasmid donor on day 0 or day 1, Cas9, gRNA (FIG. 16)
# Description: Electroporated T cells are analyzed by flow cytometry ˜24-48 hours after transfection to test for expression of GFP or other fluorochrome (marker for transgene expression). For knockout experiments, analysis for loss of target protein is conducted between 7-9 days post transfection. For knock-in experiments, measure marker expression on day 7 and day 14. Cells are prepared by washing with chilled 1×PBS with 0.5% FBS and stain according to manufacturer recommendations for each antibody.
# Transfection efficiency was also assessed by examining the stable expression of the transgenes introduced by the plasmids. FIG. 15C is a graph showing percentage of GFP-expressing cells in each group of cells, and FIG. 15D is a graph showing percentage of mTCR-expressing cells in each group of cells. In these experiments, the primary T cells were transfected through electroporation with plasmid donor expressing GFP or mTCR on day 0 or 1, FACs was performed to examine the transgene expression on day 14 post electroporation.
# This example examined the effects of treatment of electroporated T cells with DNase, RS-1, or both DNase and RS-1, on transfection efficiency. Primary T cells were transfected through electroporation with plasmid donor expressing GFP or mTCR on day 0 or 1, FACs was performed to examine the transgene expression on day 14 post electroporation.
# FIGS. 17A-17D are FACs density plots of T cells on day 7 post electroporation.
# FIGS. 18A-18B are FACs density plots of T cells on day 14 post electroporation.
# activated T cell culture = test: Cell clumping / T cell survival 24 hours following electroporation with plasmid donor vector; type: cell-based, human; conditions: DNase in culture medium vs none
# Description: • (a) Stimulated T cells are electroporated using the Neon Transfection System (100 uL or 10 ul Kit, Invitrogen, Life Technologies). • (b) Pellet cells and wash once with PBS or T buffer. • (c) Resuspend cells at a density of […] in 10 uL of T buffer for 10 ul tip, and 1×10^6 cells in 100 ul T buffer for 100 ul tips. • (d) Add specified mass of mRNA/DNA and electroporated at 1400 V, 10 ms, 3 pulses. • a. For knockout using all mRNA: • i. 100 ul tip: 15 ug Cas9 mRNA, 10 ug gRNA-RNA • ii. 10 ul tip: 1.5 ug Cas9 mRNA, 1 ug gRNA-RNA • b. When including plasmid donor for knock-in: • i. 100 ul tip: 5-20 ug plasmid • ii. 10 ul tip: 0.5-2 ug plasmid • c. For sequential electroporations: • On 0 hr timepoint deliver the amount of Cas9 specified in “a” • ii. At time point 0 hr and 6-24 hr, deliver gRNA and plasmid together in amounts specified in “a” and “b”. • (e) After transfection, plate cells at 3000 cells/ul in antibiotic free culture media containing 10 ug/ml DNase I and incubate at 37° C. in 5% CO2 for ˜20 minutes. • (f) After recovery period, add 2 times volume of antibiotic containing media to well and culture at 37° C. in 5% CO2. rAAV Transduction of CD3+ T Cells • (a) Thaw rAAV on ice and mix well prior to addition to cells. • (b) Add specified MOI at the following timepoints post-electroporation • a. For Cas9 mRNA edited cells: • i. Add virus 4-6 hours post • b. […]
# Primary human T cells = test: Percent recovery of viable transfected cells 24 hr post electroporation by flow cytometry; type: cell-based; conditions: for percent recovery of the transfected cells: 24 hr post electroporation, DNase 10 μg/ml in recovery media
# Description: This example examined the effect of DNase on post-electroporation T cell survival as well as transfection efficiency. Primary human T cells were cultured and stimulated with IL-2, IL-7, and IL-15. Later the T cells were either pulsed (control) or transfected with 1.5 μg of pMND-GFP plasmid (about 7.5 kb) at 36 hr or 48 hr post-stimulation. For comparison, DNase was added to recovery media of one group of transfected cells at 10 μg/ml. Cells were incubated in this recovery media following electroporation for 30 min. And after recovery, 2 times volume of complete media was added without any wash step (therefore diluted DNase remained in the media).
# Cells were analyzed 24 hr post electroporation by flow cytometry to determine the percentage of recovered viable cells, as shown in FIG. 15A. FIG. 15B is a graph showing the percent recovery of the transfected cells in each group. DNase increased percent recovery in both “36 hr pMND-GFP” group, where cells were transfected with pMND-GFP plasmid at 36 hr post-stimulation, and “48 hr pMND-GFP” group, where cells were transfected with pMND-GFP at 48 hr post-stimulation.
# [2] = donor 055330, 36 hours post stimulation or 36 hours post stimulation and 6 hours post initial electroporation
# [3] = donor 119866, 36 hours post stimulation or 36 hours post stimulation and 6 hours post initial electroporation
# [4] = donors 055330 and 119866 at 24 hours post initial electroporation, donor 120534 at 36 hours post stimulation or plus 6 hours (FIG. 21)
# [5] = T cells transfected on day 1, day 14 post electroporation, plasmid donor, Cas9, gRNA
# [6] = day 14 post electroporation of plasmid donor on day 0 or 1, with vs without DNase
Compound,cell viability (T cells),"transgene (mTCR) expression, electroporation efficiency [1, 2]","transgene (mTCR) expression, electroporation efficiency [1, 3]","transgene (mTCR) expression, electroporation efficiency [1, 4]",stable transgene expression (percent GFP or mTCR) (primary T cells),transgene expression (day 7 percent GFP or mTCR expression) (primary T cells),transgene expression (percent GFP+ or mTCR+ cells) (primary T cells),cell clumping and floating dead cells (activated T cell culture),"lymphocyte survival after transfection (Primary human T cells; 24 hours post-electroporation of a plasmid, culture with vs without DNase)",percent recovery of the transfected cells (Primary human T cells; pMND-GFP plasmid at 36 hr post-stimulation),percent recovery of the transfected cells (Primary human T cells; pMND-GFP plasmid at 48 hr post-stimulation),GFP expression (percentage of GFP+ cells) (primary T cells; [5]),mTCR expression (percentage of mTCR+ cells) (primary T cells; [5]),"integration efficiency, percentage of GFP-expressing cells (primary T cells; [6])","integration efficiency, percentage of mTCR-expressing cells (primary T cells; [6])"
"CC(=O)N[C@@H](CS)C(=O)O [NAC, N-acetyl-cysteine]",increased,,,,,,,,,,,,,,
"O=C(Nc1ccc(Br)cc1)c1ccc(Br)c(S(=O)(=O)NCc2ccccc2)c1 [RS-1, 3-((benzylamino)sulfonyl)-4-bromo-N-(4-bromophenyl)benzamide]",,increased,increased,increased,increased,increased,increased,,,,,,,,
DNase,,increased,increased,increased,increased,increased,increased,no cell clumps were visible; also recorded: did not show cell clumping or floating cell corpses,increased,increased,increased,promoted,promoted,increased,increased

# Source: patent US20220282285A1, “GENETICALLY-EDITED IMMUNE CELLS AND METHODS OF THERAPY” (REGENTS OF THE UNIVERSITY OF MINNESOTA, priority 2019, published 2022)
